Here are results for 8 compounds from US20090239846A1, “Novel Compounds” (Glaxo Group Limited, priority 2005, published 2009).

Counter-ions that a name gives are not always drawn.

Data set [1] concerns the target T1, Recombinant human p38α (Homo sapiens, UniProt Q16539).
T1 construct: GST; made in house
Kind of data set: Time-resolved fluorescence resonance energy transfer (TR-FRET) kinase assay (standard or low volume). It counts as biochemical. How it is done: […] To activate this protein, 3 μM unactivated p38α was incubated in 200 mM Hepes pH 7.4, 625 mM NaCl, 1 mM DTT with 27 nM active MKK6 (Upstate), 1 mM ATP and 10 mM MgCl2 The activity of the MKK6-activated p38α was assessed using a time-resolved fluorescence resonance energy transfer (TR-FRET) assay. Biotinylated-GST-ATF2 (residues 19-96, 400 nM final), ATP ([…]) and MgCl2 (5 mM final) in assay buffer (40 mM HEPES pH 7.4, 1 mM DTT) were added to wells containing 1 ul of various concentrations of compound or DMSO vehicle (3% final) in NUNC 384 well black plate. The reaction was initiated by the addition of MKK6-activated p38 (100 pM final) to give a total volume of 30 ul. The reaction was incubated for 120 minutes at room temperature, then terminated by the addition of 15 μl of 100 mM EDTA pH 7.4. Detection reagent (15 μl) in buffer (100 mM HEPES pH 7.4, 150 mM NaCl, 0.1% w/v BSA, 1 mM DTT) containing antiphosphothreonine-ATF2-71 polyclonal antibody (Cell Signalling Technology, Beverly Mass., USA) labelled with W-1024 europium chelate (Wallac OY, Turku, Finland), and APC-labelled streptavidin (Prozyme, San Leandro, Calif., USA) was added and the reaction was further incubated for 60 minutes at room temperature. The degree of phosphorylation of GST-ATF2 was measured using a Packard Discovery plate reader (Perkin-Elmer Life Sciences, Pangbourne, UK) as a ratio of specific 665 nm energy transfer signal to reference europium 620 nm signal.
[…] To activate this protein, 3 μM unactivated p38α was incubated in 200 mM Hepes pH7.4, 625 mM NaCl, 1 mM DTT with 27 nM active MKK6 (Upstate), 1 mM ATP and 10 mM MgCl2 The activity of the MKK6-activated p38α was assessed using a time-resolved fluorescence resonance energy transfer (TR-FRET) assay. Biotinylated-GST-ATF2 (residues 19-96, 400 nM final), ATP (125 μM final) and MgCl2 (5 mM final) in assay buffer (40 mM HEPES pH 7.4, 1 mM DTT) were added to wells containing 0.1 μl of various concentrations of compound or DMSO vehicle (1.7% final) in Greiner low volume 384 well black plate. The reaction was initiated by the addition of MKK6-activated p38α (100 pM final) to give a total volume of 6 μl. The reaction was incubated for 120 minutes at room temperature, then terminated by the addition of 3 μl of detection reagent in buffer (100 mM HEPES pH 7.4, 150 mM NaCl, 0.1% w/v BSA, 1 mM DTT, 100 mM EDTA) containing antiphosphothreonine-ATF2-71 polyclonal antibody (Cell Signalling Technology, Beverly Mass., USA) labelled with W-1024 europium chelate (Wallac OY, Turku, Finland), and APC-labelled streptavidin (Prozyme, San Leandro, Calif., USA). The reaction was further incubated for 60 minutes at room temperature. The degree of phosphorylation of GST-ATF2 was measured using a BMG Rubystar plate reader (BMG, UK) as a ratio of specific 665 nm energy transfer signal to reference europium 620 nm signal. It is noted that there are two assay formats shown above for the Time-resolved fluorescence resonance energy transfer kinase assay. The only difference between these two assays is the volume used and the plate type. […] The results described herein may have been performed in either assay format and are not differentiated as to which.
On the technique in general: Time-resolved FRET reads energy transfer from a long-lived donor to a nearby acceptor.

Data set [2] has as its target T1, Recombinant human p38α. Kind of data set: Fluorescence anisotropy kinase binding assay (standard or low volume). The note with it: for active in the assay (pIC50, p38α binding): 12 nM p38α, 5 nM fluorescent ligand; for IC50: bound, read-out: apparent pIC50 (converted). The method in brief: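 Activated GST-tagged recombinant human p38α (pre-activated with MBP-MKK6 DD) at 12 nM final with 5 nM rhodamine green-labelled pyridinylimidazole tracer in pH 7.5 HEPES/CHAPS/DTT/MgCl2 buffer. Test compound 0.28 nM–16.6 μM or 0.02 nM–25 μM final, 3% or 1.7% DMSO; 30–60 min at room temperature. Fluorescence anisotropy read (ex 485/em 535 nm) for Ki.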
(Polarisation of emitted light reports the rotation of a fluorescent probe.)

Data set [3] relates to IL-8 production by human neutrophils. The data set can be described thus: TNF-stimulated IL-8 production from human neutrophils. Type of data set: cell-based. To be noted: Neutrophil, bound, not more than 50% inhibition at 100 nM, read-out: IC50.
Description: TNF-Stimulated IL-8 Production from Human Neutrophils The effect of test compounds on TNF-stimulated IL8 production by human neutrophils is measured as follows. Neutrophils are prepared from blood obtained from consenting donors, using standard methods. Blood is collected in heparinized syringes and layered over histopaque (30 ml/20 ml). Following centrifugation, the red cell pellet is resuspended in PBS and purified over a dextran gradient. Red blood cells are lysed with water for 40 sec, remaining granulocytes collected by centrifugation and resuspended at 1.5×10̂6 cells/ml. Cells are added (0.5-1 ml) to 48 well plates already containing compound at 1000×final concentration in neat DMSO or 10% DMSO in RPMI1640 with 10% FBS. TNF (final concentration 100 ng/ml) is used as the stimulus. Cells incubated for approximately 20 hrs at 37° C., 5% CO2. Levels of IL-8 in the cell free supernatant are determined by sandwich ELISA, and inhibition relative to a control with DMPO but no compound is calculated.
In data set [4] the test system is TNFalpha. Kind of data set: LPS-stimulated cytokine production in human whole blood. It counts as cell-based. The note with it: LPS-stimulated TNF-alpha, bound, read-out: IC50.
Description: Assay: Test compound concentrations were prepared at 10× concentrations and LPS prepared at 1 ug/ml (final conc. of 50 ng/ml LPS) and added in 50 uL volumes to 1.5 mL eppendorf tubes. Heparinized human whole blood was obtained from healthy volunteers and was dispensed into eppendorf tubes or multiwell plates containing compounds and LPS in 0.2-0.4 mL volumes and the tubes incubated at 37 C. In some studies, compound was incubated with blood for up to 30 min prior to addition of LPS. Following a 4 hour incubation, the tubes or plates were centrifuged to remove cells and plasma was withdrawn and frozen at −80 C. Cytokine measurement: IL-1beta and/or TNFalpha were quantified using a standardized ELISA, or similar technology. Concentrations of IL-1beta or TNFalpha were determined from standard curves of the appropriate cytokine and IC50 values for test compound (concentration that inhibited 50% of LPS-stimulated cytokine production) were calculated by linear regression analysis.
Data set [5] deals with IL-6, IL-8, GM-CSF, RANTES and COX-2 synthesis. To be noted: a number of different cell types; cited from earlier work.
In data set [6] the test system is TGF-β-induced fibronectin and thrombospondin. To be noted: Laping et al., 2002; cited from earlier work.
[7] abbreviates: second end given as 'less than', read-out: pIC50, broad range of data upon multiple runs (converted).
The mark [8] stands for this setting: bound, read-out: pIC50 (converted).

T1 sequence (Q16539 whole entry): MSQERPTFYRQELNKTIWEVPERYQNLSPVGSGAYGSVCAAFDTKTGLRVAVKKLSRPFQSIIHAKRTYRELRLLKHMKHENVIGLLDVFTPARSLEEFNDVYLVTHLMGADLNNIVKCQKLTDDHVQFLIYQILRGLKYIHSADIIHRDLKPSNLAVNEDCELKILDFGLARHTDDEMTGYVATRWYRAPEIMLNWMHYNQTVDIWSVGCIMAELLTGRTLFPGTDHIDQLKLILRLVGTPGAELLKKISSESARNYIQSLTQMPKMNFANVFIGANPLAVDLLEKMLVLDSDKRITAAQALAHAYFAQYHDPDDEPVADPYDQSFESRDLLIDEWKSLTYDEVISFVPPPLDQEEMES

One may read the melting point as the temperature of the solid-liquid transition. `Cc1ccc(C(=O)NCc2ccccc2)cc1-c1nc(NCCN(C)C)nc2c1CNC(=O)N2c1c(F)cccc1F` [Example 18, 3-(8-(2,6-Difluorophenyl)-2-{[2-(dimethylamino)ethyl]amino}-7-oxo-5,6,7,8-tetrahydropyrimido[4,5-d]pyrimidin-4-yl)-4-methyl-N-(phenylmethyl)benzamide] displayed a melting point of 148 to 150 °C. Moreover, the IC50 in data set [1] (setting [7]) is at least 7.94 nM.
The compound `Cc1ccc(C(=O)Nc2ccc(C)c(-c3nc(NC4CCNCC4)nc4c3CNC(=O)N4c3c(F)cccc3F)c2)cc1F` [Example 27(b), N-{3-[8-(2,6-difluorophenyl)-7-oxo-2-(4-piperidinylamino)-5,6,7,8-tetrahydropyrimido[4,5-d]pyrimidin-4-yl]-4-methylphenyl}-3-fluoro-4-methylbenzamide] registered a melting point of 218 to 223.5 °C. Also, the “active in the assay (pIC50, p38α binding)” value in data set [2] is given as “active”. Further, the IC50 in data set [1] (setting [8]) was above 15800 nM.
On to `Cc1cc(C(=O)N(C)C)ccc1-c1nc(NCCN(C)C)nc2c1CNC(=O)N2c1c(F)cccc1F` [Example 108, 4-(8-(2,6-difluorophenyl)-2-{[2-(dimethylamino)ethyl]amino}-7-oxo-5,6,7,8-tetrahydropyrimido[4,5-d]pyrimidin-4-yl)-N,N,3-trimethylbenzamide trifluoroacetate], for which the values for the IC50 in data set [2], in data set [1] (setting [7]) and in data set [3] were above 15800 nM, at least 158 nM and above 100 nM, respectively.
For the compound `Cc1cc(C(N)=O)ccc1-c1nc(NCCN(C)C)nc2c1CNC(=O)N2c1c(F)cccc1F` [Example 110, 4-(8-(2,6-difluorophenyl)-2-{[2-(dimethylamino)ethyl]amino}-7-oxo-5,6,7,8-tetrahydropyrimido[4,5-d]pyrimidin-4-yl)-3-methylbenzamide trifluoroacetate], the IC50 in data set [2] was above 15800 nM; in data set [1] (setting [8]), above 1580 nM; in data set [3], above 100 nM.
As to `Cc1ccc(C(=O)O)cc1-c1nc(NCCN(C)C)nc2c1CNC(=O)N2c1c(F)cccc1F` [Example 117, 3-(8-(2,6-difluorophenyl)-2-{[2-(dimethylamino)ethyl]amino}-7-oxo-5,6,7,8-tetrahydropyrimido[4,5-d]pyrimidin-4-yl)-4-methylbenzoic acid], the IC50 in data set [4] is above 1000 nM; in data set [1] (setting [7]), at least 158 nM. The “active in the assay (pIC50, p38α binding)” value in data set [2] is on record as “active”.
In the case of `C[S+]([O-])c1ccc(-c2nc(-c3ccncc3)c(-c3ccc(F)cc3)[nH]2)cc1` (centres unmarked) [SB-203580], in data set [5], the “decreasing the synthesis of pro-inflammatory proteins including IL-6, IL-8, GM-CSF, RANTES and COX-2” value is reported as “effective”.
In the case of `COc1nccc(-c2c(-c3ccc(F)cc3)ncn2C2CCNCC2)n1` [SB-242235], the “effect on TGF-β-induced increases in fibronectin and thrombospondin” value in data set [6] was “inhibited”.
As to `Fc1ccc(-c2nc3n(c2-c2ccncc2)CCS3)cc1` [SK&F 86002], in data set [5], the “decreasing the synthesis of pro-inflammatory proteins including IL-6, IL-8, GM-CSF, RANTES and COX-2” value is “effective”.
